Measured values from article PMC8949600, “In Vitro & In Vivo Studies on Identifying and Designing Temporin-1CEh from the Skin Secretion of Rana chensinensis as the Optimised Antibacterial Prototype Drug” (Pharmaceutics, 2022).
Where two headings read alike, the source gives them in different places. Ends that are not written are not given here.

Tests used:
[1] = 50% TFE environment ref 44; cited from earlier work
Description: As the same situation found in the study of Temporin B KKG6A [31], T1CEh-KK experienced an improvement in antimicrobial activity, especially for the inhibition of the growth of E. coli. In addition, the substitution by proline leads to the weakening of the antimicrobial ability of T1CEh-KKP except for against S. aureus.

[2] = tested on: erythrocytes from defibrinated horse blood; assay: Haemolysis assay; details: for haemolytic activity (in words): compared with the preceding peptide of the design series
Description: (§4) The erythrocytes from defibrinated horse blood (TCS Biosciences Ltd., Buckingham, UK) were used to perform the haemolysis assay, as described previously [27]. Equal volumes of PBS and 2% (v/v) of the non-ionic detergent, Triton X-100 (Sigma–Aldrich, St. Louis, MO, USA) in PBS solution, were used as negative and positive controls, respectively. HC50 was defined as the mean peptide concentration producing 50% haemolysis.

[3] = tested on: P. aeruginosa (ATCC 27853); type: cell-based
Experimental: (§1) A measure of 5 × 10^5 CFU/mL of bacterial suspension including 2-fold dilution peptides (ranging from 1 µM to 512 µM) was incubated in 96-well plates for 16–20 h at 37 °C. For the positive and negative control, 200 mg/L of final concentration of norfloxacin and 1% DMSO were applied, respectively. […] Subsequently, 10 µL of the solution in each clear well was dropped on a Mueller–Hinton agar (MHA) plate and incubated at 37 °C for 16–20 h. The lowest concentration without colony growth was considered as the MBCs.
(§2) Mueller–Hinton broth (MHB) at pH 6.0 and 8.0 as well as MHB containing 10% of Fetal Bovine Serum (FBS), 150 mM of NaCl, 1 mM of MgCl2 and 4 µM of FeCl3, respectively, were prepared. In particular, the pathogens were diluted by the preprepared mediums to a final concentration of 5 × 10^5 CFU/mL after growing to the logarithmic phase, and other operations followed the MIC assay.

[4] = tested on: K. pneumoniae (ATCC 43816); type: cell-based
Experimental: as §1, §2

[5] = tested on: MRSA (NCTC 12493); type: cell-based
Experimental: as §1, §2

[6] = tested on: E. coli (ATCC 8739); type: cell-based
Experimental: as §1, §2

[7] = tested on: S. aureus (ATCC CRM 6538); type: cell-based
Experimental: as §1, §2

[8] = tested on: E. faecalis (NCTC 12697); type: cell-based
Experimental: as §1, §2

[9] = tested on: S. aureus (ATCC CRM 6538) biofilm; type: cell-based
Experimental: (§3) The anti-biofilm activities were tested on S. aureus and E. coli, as indicated previously. For the positive and negative control, 20 mg/mL of vancomycin and 1% DMSO were applied, respectively, in both assays. In addition, 0.1% Crystal Violet was used as the biofilm colouring agent.

[10] = tested on: erythrocytes from defibrinated horse blood; details: 256 µM
Description: as §4

[11] = tested on: E. coli (ATCC 8739) biofilm; type: cell-based
Experimental: as §3

Buforin II
helicity percent [1]: 43%

FVDLKKIANII-NH2 [Peptide T1CEa-t]
haemolytic activity (in words) ([2]; horse erythrocytes): completely lost | MBC ([3]; ATCC 27853): > 512 µM | MIC ([3]; ATCC 27853): > 512 µM | MBC ([4]; ATCC 43816): > 512 µM | MIC ([4]; ATCC 43816): > 512 µM | MBC ([5]; NCTC 12493): > 512 µM | MIC ([5]; NCTC 12493): > 512 µM | MBC ([6]; ATCC 8739): > 512 µM | MIC ([6]; ATCC 8739): > 512 µM | MBC ([7]; ATCC CRM 6538): > 512 µM | MIC ([7]; ATCC CRM 6538): > 512 µM | MBC ([8]; NCTC 12697): > 512 µM | MIC ([8]; NCTC 12697): > 512 µM

FVDLKKIANIL-NH2 [Peptide T1CEh-t]
haemolytic activity (in words) ([2]; horse erythrocytes): completely lost | MBC ([3]; ATCC 27853): > 512 µM | MIC ([3]; ATCC 27853): > 512 µM | MBC ([4]; ATCC 43816): > 512 µM | MIC ([4]; ATCC 43816): > 512 µM | MBC ([5]; NCTC 12493): > 512 µM | MIC ([5]; NCTC 12493): > 512 µM | MBC ([6]; ATCC 8739): > 512 µM | MIC ([6]; ATCC 8739): > 512 µM | MBC ([7]; ATCC CRM 6538): > 512 µM | MIC ([7]; ATCC CRM 6538): > 512 µM | MBC ([8]; NCTC 12697): > 512 µM | MIC ([8]; NCTC 12697): > 512 µM

FVDLKKIANILNSIF-NH2 [Temporin-1CEh]
MBEC [9]: > 256 µM | MBIC [9]: 64 µM | HC50 ([2]; mean peptide concentration producing 50% haemolysis, horse erythrocytes): 152.6 µM | haemolysis rate [10]: 92.3% | MBC ([3]; ATCC 27853): 256 µM | MIC ([3]; ATCC 27853): 128 µM | MIC ([3]; ATCC 27853, pH 6): >512 µM | MIC ([3]; ATCC 27853, pH 7): 128 µM | MIC ([3]; ATCC 27853, pH 8): >512 µM | MBC ([4]; ATCC 43816): 256 µM | MIC ([4]; ATCC 43816): 256 µM | MIC ([4]; ATCC 43816, pH 6): >512 µM | MIC ([4]; ATCC 43816, pH 7): 256 µM | MIC ([4]; ATCC 43816, pH 8): >512 µM | MBC ([5]; NCTC 12493): 16 µM | MIC ([5]; NCTC 12493): 16 µM | MIC ([5]; NCTC 12493, pH 6): 256 µM | MIC ([5]; NCTC 12493, pH 7): 16 µM | MIC ([5]; NCTC 12493, pH 8): 256 µM | MIC ([6]; ATCC 8739): 128/128 μM | MIC ([6]; ATCC 8739, pH 6): >512 µM | MIC ([6]; ATCC 8739, pH 7): 128 µM | MIC ([6]; ATCC 8739, pH 8): >512 µM | MBC ([7]; ATCC CRM 6538): 16 µM | MIC ([7]; ATCC CRM 6538): 8 µM | MIC ([7]; ATCC CRM 6538, pH 6): 128 µM | MIC ([7]; ATCC CRM 6538, pH 7): 8 µM | MIC ([7]; ATCC CRM 6538, pH 8): 128 µM | MBC ([8]; NCTC 12697): 32 µM | MIC ([8]; NCTC 12697): 32 µM | MIC ([8]; NCTC 12697, pH 6): >512 µM | MIC ([8]; NCTC 12697, pH 7): 32 µM | MIC ([8]; NCTC 12697, pH 8): >512 µM

KKFVDLKKIANIL-NH2 [Peptide T1CEh-KK]
haemolytic activity (in words) ([2]; horse erythrocytes): maintained the low level of haemolysis | MBC ([3]; ATCC 27853): 256 µM | MIC ([3]; ATCC 27853): 256 µM | MBC ([4]; ATCC 43816): 128 µM | MIC ([4]; ATCC 43816): 128 µM | MBC ([5]; NCTC 12493): > 512 µM | MIC ([5]; NCTC 12493): > 512 µM | MBC ([6]; ATCC 8739): 16 µM | MIC ([6]; ATCC 8739): 8 µM | MBC ([7]; ATCC CRM 6538): > 512 µM | MIC ([7]; ATCC CRM 6538): 256 µM | MBC ([8]; NCTC 12697): > 512 µM | MIC ([8]; NCTC 12697): 64 µM

KKFVPLKKIANIL-NH2 [Peptide T1CEh-KKP]
MBC ([3]; ATCC 27853): > 512 µM | MIC ([3]; ATCC 27853): 512 µM | MBC ([4]; ATCC 43816): > 512 µM | MIC ([4]; ATCC 43816): > 512 µM | MBC ([5]; NCTC 12493): 256 µM | MIC ([5]; NCTC 12493): 256 µM | MBC ([6]; ATCC 8739): 128 µM | MIC ([6]; ATCC 8739): 128 µM | MBC ([7]; ATCC CRM 6538): 64 µM | MIC ([7]; ATCC CRM 6538): 32 µM | MBC ([8]; NCTC 12697): > 512 µM | MIC ([8]; NCTC 12697): > 512 µM

KKWVPLKKIANIL-NH2 [Peptide T1CEh-KKPW]
MBEC [9]: > 256 µM | MBIC [9]: 16 µM | MBEC [11]: > 256 µM | MBIC [11]: 16 µM | haemolysis rate ([2]; at 256 μM, horse erythrocytes): lower than 10% | MBC ([3]; ATCC 27853): 64 µM | MIC ([3]; ATCC 27853): 32 µM | MIC ([3]; ATCC 27853, pH 6): 64 µM | MIC ([3]; ATCC 27853, pH 7): 32 µM | MIC ([3]; ATCC 27853, pH 8): 32 µM | MBC ([4]; ATCC 43816): 16 µM | MIC ([4]; ATCC 43816): 16 µM | MIC ([4]; ATCC 43816, pH 6): 256 µM | MIC ([4]; ATCC 43816, pH 7): 16 µM | MIC ([4]; ATCC 43816, pH 8): 128 µM | MBC ([5]; NCTC 12493): 64 µM | MIC ([5]; NCTC 12493): 16 µM | MIC ([5]; NCTC 12493, pH 6): >512 µM | MIC ([5]; NCTC 12493, pH 7): 16 µM | MIC ([5]; NCTC 12493, pH 8): 128 µM | MBC ([6]; ATCC 8739): 16 µM | MIC ([6]; ATCC 8739): 8 µM | MIC ([6]; ATCC 8739, pH 6): 16 µM | MIC ([6]; ATCC 8739, pH 7): 8 µM | MIC ([6]; ATCC 8739, pH 8): 8 µM | MBC ([7]; ATCC CRM 6538): 16 µM | MIC ([7]; ATCC CRM 6538): 8 µM | MIC ([7]; ATCC CRM 6538, pH 6): >512 µM | MIC ([7]; ATCC CRM 6538, pH 7): 8 µM | MIC ([7]; ATCC CRM 6538, pH 8): 32 µM | MBC ([8]; NCTC 12697): > 512 µM | MIC ([8]; NCTC 12697): > 512 µM | MIC ([8]; NCTC 12697, pH 6): >512 µM | MIC ([8]; NCTC 12697, pH 7): >512 µM | MIC ([8]; NCTC 12697, pH 8): 256 µM

KKWVPWKKIANIL-NH2 [Peptide T1CEh-KKPWW]
MBEC [9]: > 256 µM | MBEC [11]: > 256 µM | haemolysis rates ([2]; concentration not stated at the place (gradient of Figure 4)): lower than 6% | MBC ([3]; ATCC 27853): 16 µM | MIC ([3]; ATCC 27853): 16 µM | MIC ([3]; ATCC 27853, pH 6): 16 µM | MIC ([3]; ATCC 27853, pH 7): 16 µM | MIC ([3]; ATCC 27853, pH 8): 4 µM | MBC ([4]; ATCC 43816): 4 µM | MIC ([4]; ATCC 43816): 4 µM | MIC ([4]; ATCC 43816, pH 6): 32 µM | MIC ([4]; ATCC 43816, pH 7): 4 µM | MIC ([4]; ATCC 43816, pH 8): 8 µM | MBC ([5]; NCTC 12493): 256 µM | MIC ([5]; NCTC 12493): 32 µM | MIC ([5]; NCTC 12493, pH 6): 256 µM | MIC ([5]; NCTC 12493, pH 7): 32 µM | MIC ([5]; NCTC 12493, pH 8): 32 µM | MBC ([6]; ATCC 8739): 4 µM | MIC ([6]; ATCC 8739): 4 µM | MIC ([6]; ATCC 8739, pH 6): 4 µM | MIC ([6]; ATCC 8739, pH 7): 4 µM | MIC ([6]; ATCC 8739, pH 8): 4 µM | MBC ([7]; ATCC CRM 6538): 4 µM | MIC ([7]; ATCC CRM 6538): 4 µM | MIC ([7]; ATCC CRM 6538, pH 6): 32 µM | MIC ([7]; ATCC CRM 6538, pH 7): 4 µM | MIC ([7]; ATCC CRM 6538, pH 8): 4 µM | MBC ([8]; NCTC 12697): 128 µM | MIC ([8]; NCTC 12697): 128 µM | MIC ([8]; NCTC 12697, pH 6): >512 µM | MIC ([8]; NCTC 12697, pH 7): 128 µM | MIC ([8]; NCTC 12697, pH 8): 64 µM
